The test system of series [1] is OPM-2 human multiple myeloma cell line. The experiment in a line: Cell Viability Assay (OPM-2 10 FBS). Type of series: cell-based. The following applies: OPM-2 cells, CellTiter-Glo. Summed up:
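OPM-2 myeloma cells, 3000/well in medium with 10% FBS, exposed to serially diluted compounds for 16 h at 37° C./5% CO2. Viability read by CellTiter-Glo luminescence; IC50 from 4-parameter logistic fit.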

For series [2], the target named is T1, Mcl-1/Bim interaction, recombinant human Mcl-1 (171-327) (Homo sapiens, UniProt Q07820).
T1 construct: made in house
The experiment in a line: Cell free Mcl-1: Bim Affinity Assay (Mcl-1 HTRF). Type of series: binding. In short, it runs like this:
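TR-FRET competition assay with biotinylated human Bim peptide (residues 51-76); reaction plates incubated overnight before reading. IC50 values came from duplicate data fitted to a four-parameter sigmoidal competition curve.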

Setting [3] is: cell free Mcl-1:Bim TR-FRET, recombinant human Mcl-1 (171-327).
Setting [4] is: TR-FRET, 0.1 nM Mcl-1 (171-327), 0.05 nM biotin-Bim (51-76).
Where [5] appears, read: Homo sapiens, OPM-2, 16 h, 16 h.

Where two headings read alike, the source gives them in different places.

T1 sequence (Q07820 171-327): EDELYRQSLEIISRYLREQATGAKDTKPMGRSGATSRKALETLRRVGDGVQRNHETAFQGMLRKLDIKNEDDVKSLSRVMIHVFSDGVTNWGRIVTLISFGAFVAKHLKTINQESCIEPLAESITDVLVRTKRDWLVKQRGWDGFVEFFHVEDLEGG

Molecule `COCCN1[C@@H](C)CC=C[C@H](O)[C@@H]2CC[C@H]2CN2C[C@@]3(CCCc4cc(Cl)ccc43)COc3ccc(cc32)C(=O)NS1(=O)=O` registered a ring closure, isolated yield (from C=CC[C@H](C)N(CCOC)S(=O)(=O)NC(=O)c1ccc2c(c1)N(C[C@@H]1CC[C@H]1[C@@H](O)C=C)C[C@@]1(CCCc3cc(Cl)ccc31)CO2, rcm bond, 16-membered ring, Hoveyda-Grubbs II, 1,2-dichloroethane, 2.0 mM, 60.0 °C, 18.0 h) of 37%.
In turn, `C[C@@H]1[C@@H](C)C/C=C/[C@@H](O)[C@@H]2CC[C@H]2CN2C[C@@]3(CCCc4cc(Cl)ccc43)COc3ccc(cc32)C(=O)NS1(=O)=O` returned a ring closure, isolated yield (from C=CC[C@H](C)[C@@H](C)S(=O)(=O)NC(=O)c1ccc2c(c1)N(C[C@@H]1CC[C@H]1[C@H](O)/C=C/CCC)C[C@@]1(CCCc3cc(Cl)ccc31)CO2, rcm bond, 16-membered ring, Hoveyda-Grubbs II (10 mol%), DCE, 1.87 mM, 80.0 °C) of 12.9%.
`COc1ccc(CN2CC=CCS(=O)(=O)NC(=O)c3ccc4c(c3)N(C[C@@H]3CC[C@H]3C2=O)C[C@@]2(CCCc3cc(Cl)ccc32)CO4)cc1` (single isomer, unassigned) showed a ring closure, isolated yield (from C=CCN(Cc1ccc(OC)cc1)C(=O)[C@@H]1CC[C@H]1CN1C[C@@]2(CCCc3cc(Cl)ccc32)COc2ccc(C(=O)NS(=O)(=O)CC=C)cc21, rcm bond, 16-membered ring, Hoveyda-Grubbs II, toluene, 1.0 mM, 110.0 °C, 1.5 h) of 51%.
As to `C[C@H]1CC=C[C@H](O)[C@@H]2CC[C@H]2CN2C[C@@]3(CCCc4cc(Cl)ccc43)COc3ccc(cc32)C(=O)NS(=O)(=O)N1CC1CC1`, the ring closure, isolated yield (from C=CC[C@H](C)N(CC1CC1)S(=O)(=O)NC(=O)c1ccc2c(c1)N(C[C@@H]1CC[C@H]1[C@@H](O)C=C)C[C@@]1(CCCc3cc(Cl)ccc31)CO2, rcm bond, 16-membered ring, Hoveyda-Grubbs II, 1,2-dichloroethane, 1.5 mM, 50.0 °C, 24.0 h) came to 45%.
Molecule “(1S,3′R,6′R,7′S,8′E,12′R)-12′-((2S)-2-((tert-butyl(diphenyl)silyl)oxy)propyl)-6-chloro-7′-hydroxy-3,4-dihydro-2h,15′h-spiro[naphthalene-1,22′-[20]oxa[13]thia[1,14]diazatetracyclo[14.7.2.0^3,6.0^19,24]pentacosa[8,16,18,24]tetraen]-15′-one 13′,13′-dioxide or (1S,3′R,6′R,7′S,8′E,12′S)-12′-((2S)-2-((tert-butyl(diphenyl)silyl)oxy)propyl)-6-chloro-7′-hydroxy-3,4-dihydro-2h,15′h-spiro[naphthalene-1,22′-[20]oxa[13]thia[1,14]diazatetracyclo[14.7.2.0^3,6.0^19,24]pentacosa[8,16,18,24]tetraen]-15′-one 13′,13′-dioxide” showed a ring closure, isolated yield (rcm bond, 16-membered ring, Hoveyda-Grubbs II, DCM, 2.7 mM, 45.0 °C) of 32%.
In turn, `CN1CC=CCS(=O)(=O)NC(=O)c2ccc3c(c2)N(C[C@@H]2CC[C@H]2C1=O)C[C@@]1(CCCc2cc(Cl)ccc21)CO3` (single isomer, unassigned) returned a ring closure, isolated yield (from C=CCN(C)C(=O)[C@@H]1CC[C@H]1CN1C[C@@]2(CCCc3cc(Cl)ccc32)COc2ccc(C(=O)NS(=O)(=O)CC=C)cc21, rcm bond, 16-membered ring, Hoveyda-Grubbs II, toluene, 1.0 mM, 1.5 h) of 48%.
For the setting “from C=CC[C@H](CO[Si](C)(C)C(C)(C)C)S(=O)(=O)NC(=O)c1ccc2c(c1)N(C[C@@H]1CC[C@H]1[C@@H](O)CC=C)C[C@@]1(CCCc3cc(Cl)ccc31)CO2, rcm bond, 16-membered ring, Hoveyda-Grubbs II (20 mol%), toluene, 0.72 mM, 106.0 °C, 2.0 h”, `CC(C)(C)[Si](C)(C)OC[C@H]1CC=CC[C@H](O)[C@@H]2CC[C@H]2CN2C[C@@]3(CCCc4cc(Cl)ccc43)COc3ccc(cc32)C(=O)NS1(=O)=O` yielded a ring closure, isolated yield of 85.9%.
As to `C[C@@H]1[C@H]2/C=C/[C@H](O)[C@@H]3CC[C@H]3CN3C[C@@]4(CCCc5cc(Cl)ccc54)COc4ccc(cc43)C(=O)NS(=O)(=O)[C@H]1CCC2`, the ring closure, isolated yield (from C[C@H]1[C@H](/C=C/[C@H](O)[C@@H]2CC[C@H]2CN2C[C@@]3(CCCc4cc(Cl)ccc43)COc3ccc(C(=O)O)cc32)CCC[C@H]1S(N)(=O)=O, amide bond, 16-membered ring, EDC/DMAP, DCM, 2.0 mM) came to 11.6%.
With `C[C@]12CC[C@@H]1CN1C[C@@]3(CCCc4cc(Cl)ccc43)COc3ccc(cc31)C(=O)NS(=O)(=O)CC/C=C/C[C@@H]2O`, the ring closure, isolated yield (from C=CCCS(=O)(=O)NC(=O)c1ccc2c(c1)N(C[C@@H]1CC[C@@]1(C)[C@@H](O)CC=C)C[C@@]1(CCCc3cc(Cl)ccc31)CO2, rcm bond, 16-membered ring, 1.5 h) came out at 4.76%.
As to `O=C1NS(=O)(=O)[C@H]2CCC[C@H](C=C[C@H](O)[C@@H]3CC[C@H]3CN3C[C@@]4(CCCc5cc(Cl)ccc54)COc4ccc1cc43)C2` (single isomer, unassigned), the ring closure, isolated yield (from NS(=O)(=O)[C@H]1CCC[C@H](/C=C/[C@H](O)[C@@H]2CC[C@H]2CN2C[C@@]3(CCCc4cc(Cl)ccc43)COc3ccc(C(=O)O)cc32)C1, amide bond, 16-membered ring, EDC/DMAP, DCM, 2.0 mM, 64.0 h) worked out at 20%.
The molecule “(1S,3′R,6′R,7′S,9′Z,12′S)-6-chloro-7′-hydroxy-12′-(trifluoromethyl)-3,4-dihydro-2H,15′H-spiro[naphthalene-1,22′-[20]oxa[13]thia[1,14]diazatetracyclo[14.7.2.0^3,6.0^19,24]pentacosa [9,16,18,24]tetraen]-15′-one 13′,13′-dioxide and [...] (1S,3′R,6′R,7′S,9′E,12′S)-6-chloro-7′-hydroxy-12′-(trifluoromethyl)-3,4-dihydro-2H,15′H-spiro[naphthalene-1,22′-[20]oxa[13]thia[1,14]diazatetracyclo[14.7.2.0^3,6.0^19,24]pentacosa [9,16,18,24]tetraen]-15′-one 13′,13′-dioxide and (1S,3′R,6′R,7′S,9′E,12′R)-6-chloro-7′-hydroxy-12′-(trifluoromethyl)-3,4-dihydro-2H,15′H-spiro[naphthalene-1,22′-[20]oxa[13]thia[1,14]diazatetracyclo[14.7.2.0^3,6.0^19,24]pentacosa [9,16,18,24]tetraen]-15′-one 13′,13′-dioxide” showed a ring closure, isolated yield (rcm bond, 16-membered ring, Hoveyda-Grubbs II, toluene, 2.4 mM, 101.0 °C) of 63%.
For `C[C@H]1CC=CC[C@H](O)[C@@H]2CC[C@H]2CN2C[C@@]3(CCCc4cc(Cl)ccc43)COc3ccc(cc32)C(=O)NS(=O)(=O)[C@H]1C` (single isomer, unassigned), where the note is “from C=CC[C@H](C)[C@H](C)S(=O)(=O)NC(=O)c1ccc2c(c1)N(C[C@@H]1CC[C@H]1[C@@H](O)CC=C)C[C@@]1(CCCc3cc(Cl)ccc31)CO2, rcm bond, 17-membered ring, Hoveyda-Grubbs II (10 mol%), DCM, 1.6 mM, 45.0 °C”, the ring closure, isolated yield is 25%.
Turning to `CO[C@H]1/C=C/C[C@H](C)[C@@H](CC(F)(F)F)S(=O)(=O)NC(=O)c2ccc3c(c2)N(C[C@@H]2CC[C@H]21)C[C@@]1(CCCc2cc(Cl)ccc21)CO3` (single isomer, unassigned) [Example 689], the IC50 was 836 nM in series [1] (16 h) and 2.53 nM in series [2] (setting [3]).
For `CC[C@@H]1CC/C=C/[C@H](OCCS(=O)(=O)N(C)C)[C@@H]2CC[C@H]2CN2C[C@@]3(CCCc4cc(Cl)ccc43)COc3ccc(cc32)C(=O)NS1(=O)=O` [Example 989, 2-(((1S,3′R,6′R,7′S,8′E,12′R)-6-chloro-12′-ethyl-13′,13′-dioxido-15′-oxo-3,4-dihydro-2H-spiro[naphthalene-1,22′-[20]oxa[13]thia[1,14]diazatetracyclo[14.7.2.0^3,6.0^19,24]pentacosa [8,16,18,24]tetraen]-7′-yl)oxy)-N,N-dimethylethanesulfonamide], the concentration for half-maximal inhibition (IC50) was found to be 330 nM in series [1] (Homo sapiens, OPM-2, 16 h, 16 h incubation) and 0.851 nM in series [2] (setting [4]).
As to `C[C@H]1CCCS(=O)(=O)NC(=O)c2ccc3c(c2)N(C[C@@H]2CC[C@H]2[C@@H](O)C1)C[C@@]1(CCCc2cc(Cl)ccc21)CO3` (single isomer, unassigned) [Example 242], the results for the IC50 in series [1] (16 h) and in series [2] (setting [4]) were 467 nM and 3.05 nM, respectively.
Take `CC(=O)NCCO[C@H]1/C=C/C[C@H](C)[C@@H](C)S(=O)(=O)NC(=O)c2ccc3c(c2)N(C[C@@H]2CC[C@H]21)C[C@@]1(CCCc2cc(Cl)ccc21)CO3` [Example 732, N-(2-(((1S,3′R,6′R,7′S,8′E,11′S,12′R)-6-chloro-11,12′-dimethyl-13′, 13′-dioxido-15′-oxo-3,4-dihydro-2H-spiro[naphthalene-1,22′-[20]oxa[13]thia[1,14]diazatetracyclo[14.7.2.0^3,6.0^19,24]pentacosa[8,16,18,24]tetraen]-7′-yl)oxy)ethyl)acetamide]: the figures for the IC50 in series [1] (setting [5]) and in series [2] (setting [3]) were 170 nM and 0.244 nM, respectively.
With `C[C@@H]1[C@@H](C)C/C=C/[C@H](OCC(=O)N2CC(C)(O)C2)[C@@H]2CC[C@H]2CN2C[C@@]3(CCCc4cc(Cl)ccc43)COc3ccc(cc32)C(=O)NS1(=O)=O` [Example 305, (1S,3′R,6′R,7′S,8′E,11′S,12′R)-6-chloro-7′-(2-(3-hydroxy-3-methyl-1-azetidinyl)-2-oxoethoxy)-11′,12′-dimethyl-3,4-dihydro-2H,15′H-spiro[naphthalene-1,22′-[20]oxa[13]thia[1,14]diazatetracyclo[14.7.2.0^3,6.0^19,24]pentacosa [8,16,18,24]tetraen]-15′-one 13′,13′-dioxide], the half-maximal inhibitory concentration (IC50) was found to be 998 nM in series [1] (setting [5]) and 0.177 nM in series [2] (setting [4]).
On to `COCCN1CC/C=C/[C@H](O)[C@@H]2CC[C@H]2CN2C[C@@]3(CCCc4cc(Cl)ccc43)COc3ccc(cc32)C(=O)NS1(=O)=O` [Example 31, (1S,3′R,6′R,7′S,8′E)-6-chloro-7′-hydroxy-12′-(2-methoxyethyl)-3,4-dihydro-2H,15′H-spiro[naphthalene-1,22′-[20]oxa[13]thia[1,12,14]triazatetracyclo[14.7.2.0^3,6.0^19,24]pentacosa[8,16,18,24]tetraen]-15′-one 13′,13′-dioxide], for which the figures for the 50% inhibitory concentration (IC50) in series [1] (setting [5]) and in series [2] (setting [4]) were 621 nM and 0.492 nM, respectively.

The values are drawn from patent publication US12091425B2 (AMGEN INC., priority 2016, dated 2024).
